Numbers after ± are expanded uncertainties.
Assay: xn = mol fraction of the nth substance listed
Conditions: Gas, isochoric method

Compound: C=CC(F)(F)F [1,1,1-trifluoro-2-propene] + CC(C)C
- specific volume (303.15 K, 47.6 kPa, x2 = 0.282): 0.6134 ± 0.11 m3/kg
- specific volume (303.15 K, 169.8 kPa, x2 = 0.898): 0.2302 ± 0.0041 m3/kg
- specific volume (308.15 K, 48.4 kPa, x2 = 0.282): 0.6136 ± 0.0091 m3/kg
- specific volume (308.15 K, 172.8 kPa, x2 = 0.898): 0.2303 ± 0.0041 m3/kg
- specific volume (308.15 K, 192.7 kPa, x2 = 0.434): 0.1611 ± 0.0041 m3/kg
- specific volume (308.15 K, 289.5 kPa, x2 = 0.225): 0.0942 ± 0.0093 m3/kg
- specific volume (313.15 K, 49.2 kPa, x2 = 0.282): 0.6137 ± 0.0088 m3/kg
- specific volume (313.15 K, 175.8 kPa, x2 = 0.898): 0.2303 ± 0.0041 m3/kg
- specific volume (313.15 K, 196 kPa, x2 = 0.434): 0.1611 ± 0.004 m3/kg
- specific volume (313.15 K, 294.8 kPa, x2 = 0.225): 0.0943 ± 0.0093 m3/kg
- specific volume (318.15 K, 50 kPa, x2 = 0.282): 0.6139 ± 0.0085 m3/kg
- specific volume (318.15 K, 178.7 kPa, x2 = 0.898): 0.2304 ± 0.0041 m3/kg
- specific volume (318.15 K, 199.4 kPa, x2 = 0.434): 0.1611 ± 0.004 m3/kg
- specific volume (318.15 K, 300.1 kPa, x2 = 0.225): 0.0943 ± 0.0094 m3/kg
- specific volume (323.15 K, 50.8 kPa, x2 = 0.282): 0.614 ± 0.0082 m3/kg
- specific volume (323.15 K, 181.7 kPa, x2 = 0.898): 0.2304 ± 0.0041 m3/kg
- specific volume (323.15 K, 202.4 kPa, x2 = 0.434): 0.1612 ± 0.0039 m3/kg
- specific volume (323.15 K, 305.3 kPa, x2 = 0.225): 0.0943 ± 0.0093 m3/kg
- specific volume (328.15 K, 51.6 kPa, x2 = 0.282): 0.6141 ± 0.0079 m3/kg
- specific volume (328.15 K, 184.7 kPa, x2 = 0.898): 0.2305 ± 0.0041 m3/kg
- specific volume (328.15 K, 205.9 kPa, x2 = 0.434): 0.1612 ± 0.0039 m3/kg
- specific volume (328.15 K, 310.5 kPa, x2 = 0.225): 0.0943 ± 0.0093 m3/kg
- specific volume (333.15 K, 52.4 kPa, x2 = 0.282): 0.6143 ± 0.0075 m3/kg
- specific volume (333.15 K, 187.6 kPa, x2 = 0.898): 0.2305 ± 0.004 m3/kg
- specific volume (333.15 K, 209.4 kPa, x2 = 0.434): 0.1613 ± 0.0039 m3/kg
- specific volume (333.15 K, 315.8 kPa, x2 = 0.225): 0.0943 ± 0.0094 m3/kg
- specific volume (338.15 K, 53.2 kPa, x2 = 0.282): 0.6144 ± 0.0073 m3/kg
- specific volume (338.15 K, 190.4 kPa, x2 = 0.898): 0.2306 ± 0.0041 m3/kg
- specific volume (338.15 K, 212 kPa, x2 = 0.434): 0.1613 ± 0.0038 m3/kg
- specific volume (338.15 K, 320.9 kPa, x2 = 0.225): 0.0944 ± 0.0094 m3/kg
- specific volume (343.15 K, 54 kPa, x2 = 0.282): 0.6145 ± 0.007 m3/kg
- specific volume (343.15 K, 193.4 kPa, x2 = 0.898): 0.2306 ± 0.0041 m3/kg
- specific volume (343.15 K, 215.5 kPa, x2 = 0.434): 0.1613 ± 0.0038 m3/kg
- specific volume (343.15 K, 326.1 kPa, x2 = 0.225): 0.0944 ± 0.0094 m3/kg
- specific volume (348.15 K, 54.8 kPa, x2 = 0.282): 0.6147 ± 0.0067 m3/kg
- specific volume (348.15 K, 196.3 kPa, x2 = 0.898): 0.2307 ± 0.004 m3/kg
- specific volume (348.15 K, 218.9 kPa, x2 = 0.434): 0.1614 ± 0.0038 m3/kg
- specific volume (348.15 K, 331.3 kPa, x2 = 0.225): 0.0944 ± 0.0094 m3/kg
- specific volume (353.15 K, 55.6 kPa, x2 = 0.282): 0.6148 ± 0.0064 m3/kg
- specific volume (353.15 K, 199.4 kPa, x2 = 0.898): 0.2307 ± 0.004 m3/kg
- specific volume (353.15 K, 222.4 kPa, x2 = 0.434): 0.1614 ± 0.0037 m3/kg
- specific volume (353.15 K, 336.5 kPa, x2 = 0.225): 0.0944 ± 0.0094 m3/kg
- specific volume (358.15 K, 56.4 kPa, x2 = 0.282): 0.6149 ± 0.0062 m3/kg
- specific volume (358.15 K, 202.3 kPa, x2 = 0.898): 0.2308 ± 0.004 m3/kg
- specific volume (358.15 K, 225 kPa, x2 = 0.434): 0.1614 ± 0.0037 m3/kg
- specific volume (358.15 K, 341.6 kPa, x2 = 0.225): 0.0944 ± 0.0094 m3/kg
- specific volume (363.15 K, 57.2 kPa, x2 = 0.282): 0.6151 ± 0.006 m3/kg
- specific volume (363.15 K, 205.3 kPa, x2 = 0.898): 0.2308 ± 0.004 m3/kg
- specific volume (363.15 K, 228.5 kPa, x2 = 0.434): 0.1615 ± 0.0037 m3/kg
- specific volume (363.15 K, 346.8 kPa, x2 = 0.225): 0.0945 ± 0.0094 m3/kg
- specific volume (368.15 K, 58.1 kPa, x2 = 0.282): 0.6152 ± 0.0057 m3/kg
- specific volume (368.15 K, 208.1 kPa, x2 = 0.898): 0.2309 ± 0.004 m3/kg
- specific volume (368.15 K, 231.9 kPa, x2 = 0.434): 0.1615 ± 0.0037 m3/kg
- specific volume (368.15 K, 351.9 kPa, x2 = 0.225): 0.0945 ± 0.0094 m3/kg
- specific volume (373.15 K, 58.8 kPa, x2 = 0.282): 0.6153 ± 0.0055 m3/kg
- specific volume (373.15 K, 211.1 kPa, x2 = 0.898): 0.2309 ± 0.0039 m3/kg
- specific volume (373.15 K, 235.2 kPa, x2 = 0.434): 0.1615 ± 0.0037 m3/kg
- specific volume (373.15 K, 357.1 kPa, x2 = 0.225): 0.0945 ± 0.0096 m3/kg
- specific volume (378.15 K, 59.7 kPa, x2 = 0.282): 0.6155 ± 0.0054 m3/kg
- specific volume (378.15 K, 213.4 kPa, x2 = 0.898): 0.231 ± 0.0039 m3/kg
- specific volume (378.15 K, 236.9 kPa, x2 = 0.434): 0.1616 ± 0.0036 m3/kg
- specific volume (378.15 K, 362.3 kPa, x2 = 0.225): 0.0945 ± 0.0096 m3/kg
- specific volume (383.15 K, 60.5 kPa, x2 = 0.282): 0.6156 ± 0.0051 m3/kg
- specific volume (383.15 K, 217.1 kPa, x2 = 0.898): 0.231 ± 0.0042 m3/kg
- specific volume (383.15 K, 240.1 kPa, x2 = 0.434): 0.1616 ± 0.0036 m3/kg
- specific volume (383.15 K, 367.5 kPa, x2 = 0.225): 0.0946 ± 0.0094 m3/kg

Reference: the NIST ThermoML archive (doi:10.1021/acs.jced.8b00921)
